Reference: paper PMC4193543 (ChemMedChem, 2012)

Molecular target: BK β1 subunit (Rattus norvegicus, UniProt P97678)
Experiment: inside-out patch clamp, single-channel NPo in excised oocyte patches
Format: cell-based

Chain of BK β1 subunit (P97678 whole entry): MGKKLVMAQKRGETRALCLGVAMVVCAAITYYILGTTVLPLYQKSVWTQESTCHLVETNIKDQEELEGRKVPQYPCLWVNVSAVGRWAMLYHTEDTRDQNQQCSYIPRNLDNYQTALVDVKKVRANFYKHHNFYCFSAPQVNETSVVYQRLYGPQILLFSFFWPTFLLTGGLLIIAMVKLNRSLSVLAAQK
Chain of BK β1 subunit (Q62976 whole entry partner): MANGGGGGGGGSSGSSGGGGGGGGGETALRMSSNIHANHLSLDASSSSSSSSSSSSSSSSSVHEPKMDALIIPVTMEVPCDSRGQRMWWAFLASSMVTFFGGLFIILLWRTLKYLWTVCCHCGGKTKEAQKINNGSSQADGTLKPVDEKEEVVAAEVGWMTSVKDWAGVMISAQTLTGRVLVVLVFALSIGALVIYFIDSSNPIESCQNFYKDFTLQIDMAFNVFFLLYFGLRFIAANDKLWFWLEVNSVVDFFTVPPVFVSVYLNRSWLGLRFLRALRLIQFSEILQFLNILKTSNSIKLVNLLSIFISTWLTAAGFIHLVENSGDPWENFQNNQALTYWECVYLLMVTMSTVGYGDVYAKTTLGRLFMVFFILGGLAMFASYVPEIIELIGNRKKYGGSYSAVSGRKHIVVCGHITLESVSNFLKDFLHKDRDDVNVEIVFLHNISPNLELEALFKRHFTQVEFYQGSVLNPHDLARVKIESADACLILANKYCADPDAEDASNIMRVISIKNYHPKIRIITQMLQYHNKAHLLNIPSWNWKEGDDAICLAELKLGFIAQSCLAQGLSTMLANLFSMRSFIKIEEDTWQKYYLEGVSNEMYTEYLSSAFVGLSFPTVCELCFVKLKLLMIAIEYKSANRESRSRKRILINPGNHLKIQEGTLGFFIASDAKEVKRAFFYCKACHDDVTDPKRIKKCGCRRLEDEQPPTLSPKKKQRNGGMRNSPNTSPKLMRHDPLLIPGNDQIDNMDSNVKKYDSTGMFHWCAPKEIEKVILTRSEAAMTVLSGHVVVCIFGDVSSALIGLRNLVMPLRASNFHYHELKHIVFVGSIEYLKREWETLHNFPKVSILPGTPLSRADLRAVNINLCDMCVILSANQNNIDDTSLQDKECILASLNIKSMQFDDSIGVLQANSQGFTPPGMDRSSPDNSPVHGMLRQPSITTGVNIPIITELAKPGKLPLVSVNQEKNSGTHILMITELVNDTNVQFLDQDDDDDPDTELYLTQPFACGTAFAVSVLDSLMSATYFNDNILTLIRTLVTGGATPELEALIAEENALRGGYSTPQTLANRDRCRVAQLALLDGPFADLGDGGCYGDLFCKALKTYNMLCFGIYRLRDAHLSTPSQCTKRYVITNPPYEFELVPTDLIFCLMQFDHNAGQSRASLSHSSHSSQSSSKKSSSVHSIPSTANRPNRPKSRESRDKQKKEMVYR

C[C@H](CCCC(=O)O)[C@H]1CC[C@H]2[C@@H]3CC[C@@H]4C[C@H](O)CC[C@]4(C)[C@H]3CC[C@]12C [compound 15, higher homologe acid (15, carboxyl group at C25)]
EC50: 42.8 µM

C[C@H](CCC#N)[C@H]1CC[C@H]2[C@@H]3CC[C@@H]4C[C@H](O)CC[C@]4(C)[C@H]3CC[C@]12C [compound 11, 3α-hydroxy-23-cyano analog, de-acetylated derivative (11)]
EC50: 46.4 µM

C[C@H](CCC(=O)O)[C@H]1CC[C@H]2[C@@H]3CC[C@@H]4C[C@H](O)CC[C@]4(C)[C@H]3CC[C@]12C [LCA, 5β-cholanic acid-3α-ol]
EC50: 44 µM
